Test results from patent publication US9938222B2 (BRISTOL-MYERS SQUIBB COMPANY, priority 2014, dated 2018).
pEC50: −log10 of the molar value.

These compounds were tested against human GPR120 (Homo sapiens (Human), UniProt Q5NUL3) (assay: GPR120 pERK AlphaScreen SureFire Assay (human GPR120 pERK assay)). Details: CHO cells stably transfected with short form of human GPR120.
Type: cell-based
Source text: GPR120 activity was monitored by measuring phosphorylation of ERK (pERK), since G protein receptors are known to activate the ERK signaling cascade either directly and/or through recruitment of arrestin that serves as a scaffold for downstream signaling events.
GPR120 pERK AlphaScreen SureFire Assay
The human and mouse GPR120-mediated intracellular phosphorylated ERK assays were established using CHOA12 cells stably transfected with the short form of human or mouse GPR120 receptor. Cells were cultured in growth medium consisting of F-12 media (Invitrogen Cat. #11765) with 5% Charcoal/Dextran FBS (Invitrogen Cat. #12676-029), 500 μg/mL GENETICIN® (Life Technologies Cat. #10131-027) and 250 μg/mL Zeocin (Invitrogen Cat. #R250-01). Cells were cryo-preserved at a concentration of 2×10^7 cells/mL, in 90% Charcoal/Dextran FBS and 10% DMSO, and frozen in liquid nitrogen at a low passage number.
For the pERK assay, 2×10^7 cells/mL cryopreserved human and mouse cells were thawed rapidly in a 37° C. water bath and added to a T-225 flask containing 50 mL growth medium. The flasks were placed in a tissue culture incubator overnight (37° C., 5% CO2). The next day, cells were harvested with trypsin (Gibco Cat. #25300-054), resuspended in serum-containing growth medium and counted using a Cellometer and volume adjusted to a concentration of 0.6×10^6 cells/mL. Cells were plated into 384-well clear bottom tissue culture plates (BD Cat. #353962) at 50 μL/well, for a density of 30,000 cells/well using a MULTIDROP® and incubated for 16-18 hours (overnight) at 37° C. with 5% CO2. The next day, cells were serum starved in 30 μL of F-12 media without any serum or antibiotics for 2 hours at 37° C.
Test compounds were 3-fold, 11-point serially diluted in DMSO in a REMP assay plate (Matrix Cat. #4307) by Tecan and 5 μL was transferred into an ECHO source plate (Labcyte Cat. #LC-0200). Cells were then stimulated with 50 nL of compound dilutions using ECHO liquid handler for 7 min at 37° C. Compounds ranged from final assay concentrations of 33.33 μM to 0.56 nM.
The media was then dumped and cells lysed with 20 μL of 1× Lysis buffer from the AlphaScreen SureFire Phospho-ERK 1/2 Kit (Perkin Elmer Cat. #6760617M). The lysis buffer was diluted 5-fold with water before use. The plate was agitated on a shaker for 10 min after which 2 μL was transferred into a 384-well white proxiplate (Perkin Elmer Cat. #6008289). The SureFire assay reagent mix was prepared by mixing 60 parts Reaction Buffer, 10 parts Activation Buffer, 1 part Donor Beads, 1 part Acceptor Beads (Perkin Elmer Cat. #TGRES10K). 3.5 μL/well of this reagent mix was manually added to the proxiplate with a multichannel pipettor. Plates were spun down at 1000 rpm for 2 min, followed by light-protected incubation at room temperature for 2 hours. The plates were read on the Alpha-technology compatible Envision multilabel plate reader using AlphaScreen protocol according to manufacturer's specifications. The agonist effect of compounds was expressed as 100×(average sample-average blank)/(average total-average blank) where sample is the luminescence activity in the presence of test compound, blank is equal to the luminescence activity in the presence of DMSO control and the total is signal induced by 50 μM linolenic acid as reference compound. Activation data for the test compound over a range of concentrations was plotted as percentage activation of the test compound (100%=maximum response). After correcting for background, EC50 values were determined. The EC50 is defined as the concentration of test compound which produces 50% of the maximal response and was quantified using the 4 parameter logistic equation to fit the data.
The human and mouse GPR120-mediated intracellular phosphorylated ERK assays were also established using CHO-K1 cells stably transfected with the short form of human or mouse GPR120 receptor. […]

human GPR120, sequence (Q5NUL3 whole entry): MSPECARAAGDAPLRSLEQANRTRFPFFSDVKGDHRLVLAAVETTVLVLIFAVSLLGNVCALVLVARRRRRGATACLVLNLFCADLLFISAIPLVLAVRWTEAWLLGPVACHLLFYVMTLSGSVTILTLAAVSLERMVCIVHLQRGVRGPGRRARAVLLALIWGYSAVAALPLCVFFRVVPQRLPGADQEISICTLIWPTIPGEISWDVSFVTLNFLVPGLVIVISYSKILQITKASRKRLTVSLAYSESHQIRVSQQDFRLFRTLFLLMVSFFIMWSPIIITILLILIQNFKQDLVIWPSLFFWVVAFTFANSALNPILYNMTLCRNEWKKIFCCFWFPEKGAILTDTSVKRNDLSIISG

Row | pEC50 | Compound
1 | 6.49 | CC(C)Oc1ccc(F)c(-c2ccc(CC[C@@H]3C[C@H]3C(=O)O)cc2)c1 (racemic) [Example 30, Trans-2-(2-(2′-fluoro-5′-isopropoxy-[1,1′-biphenyl]-4-yl)ethyl)cyclopropanecarboxylic acid]
2 | 6.48 | CC(C)Oc1ccc(F)c(-c2ccc(C[C@@H]3C[C@H]3CC(=O)O)cc2)c1 (single isomer, unassigned) [Example 35, Trans-(2-((2′-fluoro-5′-isopropoxy-[1,1′-biphenyl]-4-yl)methyl)cyclopropyl)acetic acid]
3 | 6.85 | Cc1ccc(Oc2ccc(F)c(-c3ccc(OC[C@@H]4C[C@H]4C(=O)O)cc3)c2)cn1 (racemic) [Example 114, Trans-2-(((2′-fluoro-5′-((6-methylpyridin-3-yl)oxy)-[1,1′-biphenyl]-4-yl)oxy)methyl) cyclopropanecarboxylic acid]
4 | 7.22 | CC(C)Oc1ccc(F)c(-c2ccc(C[C@H]3C[C@@H]3CC(=O)O)cc2)c1 (single isomer, unassigned) [Example 36, Trans-(2-((2′-fluoro-5′-isopropoxy-[1,1′-biphenyl]-4-yl)methyl)cyclopropyl)acetic acid]
5 | 7.05 | O=C(O)C1CC1COc1ccc(-c2cc(Oc3cccc(F)c3)cc(F)c2F)cc1F (racemic) [Example 104, Trans-2-(((2′,3,3′-trifluoro-5′-(3-fluorophenoxy)-[1,1′-biphenyl]-4-yl)oxy)methyl)cyclopropanecarboxylic acid]
6 | 6.33 | O=C(O)[C@@H]1C[C@H]1CCc1ccc(-c2cc(Oc3ccccc3)ccc2F)cc1 (racemic) [Example 76, Trans-2-(2-(2′-fluoro-5′-phenoxy-[1,1′-biphenyl]-4-yl)ethyl) cyclopropanecarboxylic acid]
7 | 6.17 | O=C(O)[C@@H]1C[C@H]1COc1ccc(-c2cc(C(F)(F)F)ccc2F)cc1 (racemic) [Example 123, Trans-2-(((2′-fluoro-5′-(trifluoromethyl)-[1,1′-biphenyl]-4-yl)oxy)methyl)cyclopropanecarboxylic acid]
8 | 5.49 | COCCc1cc(-c2cc(OC(C)C)ccc2F)ccc1OC[C@@H]1C[C@H]1C(=O)O (racemic) [Example 89, Trans-2-(((2′-fluoro-5′-isopropoxy-3-(2-methoxyethyl)-[1,1′-biphenyl]-4-yl)oxy)methyl) cyclopropanecarboxylic acid]
9 | 5.29 | CC(C)Oc1ccc(F)c(-c2ccc(CC[C@]3(F)C[C@@H]3C(=O)O)cc2)c1 (racemic) [Example 40, Trans-2-fluoro-2-(2-(2′-fluoro-5′-isopropoxy-[1,1′-biphenyl]-4-yl)ethyl) cyclopropanecarboxylic acid]
10 | 5.49 | COc1ccc(F)c(-c2ccc(CC[C@@H]3C[C@H]3C(=O)O)cc2)c1 (relative stereo) [Example 80, Trans-2-(2-(2′-fluoro-5′-methoxy-[1,1′-biphenyl]-4-yl)ethyl) cyclopropanecarboxylic acid]
11 | 6.24 | CC(C)Oc1cc(F)cc(-c2ccc(OC[C@@H]3C[C@H]3C(=O)O)cc2F)c1 (racemic) [Example 60, Trans-2-(((2,3′-difluoro-5′-isopropoxy-[1,1′-biphenyl]-4-yl)oxy)methyl) cyclopropanecarboxylic acid]
12 | 7.10 | O=C(O)[C@H]1C[C@@H]1COc1ccc(-c2cc(Oc3ccccc3)ccc2F)cc1F (racemic) [Example 9, (Trans)-(+/−)-2-(((2′,3-difluoro-5′-phenoxy-[1,1′-biphenyl]-4-yl)oxy)methyl) cyclopropanecarboxylic acid]

The next lines start with the compound.

Row | Compound | pEC50
13 | CC(C)Oc1ccc(F)c(-c2ccc(CC[C@H]3C[C@H]3C(=O)O)cc2)c1 (single isomer, unassigned) [Example 16] | 6.38
14 | Cc1ccc(Oc2ccc(F)c(-c3ccc(OCC4CC4C(=O)O)c(F)c3)c2)cc1F (racemic) [Example 100, Trans-2-(((2′,3-difluoro-5′-(3-fluoro-4-methylphenoxy)-[1,1′-biphenyl]-4-yl)oxy)methyl)cyclopropanecarboxylic acid] | 6.59
15 | CC(C)Oc1cc(Cl)cc(-c2ccc(OC[C@H]3C[C@@H]3C(=O)O)c(F)c2)c1 (racemic) [Example 12, Trans-2-(((3′-chloro-3-fluoro-5′-isopropoxy-[1,1′-biphenyl]-4-yl)oxy)methyl) cyclopropanecarboxylic acid] | 6.51
16 | Cc1ccc(Oc2ccc(F)c(-c3ccc(OCC4CC4C(=O)O)c(F)c3)c2)cc1F (single isomer, unassigned) [Example 102, Trans-2-(((2′,3-difluoro-5′-(3-fluoro-4-methylphenoxy)-[1,1′-biphenyl]-4-yl)oxy)methyl)cyclopropanecarboxylic acid] | 6.57
17 | CC(C)Oc1ccc(F)c(-c2ccc(OC[C@@H]3C[C@H]3C(=O)O)cc2)c1 (racemic) [Example 1, Trans-2-(((2′-fluoro-5′-isopropoxy-[1,1′-biphenyl]-4-yl)oxy)methyl) cyclopropanecarboxylic acid] | 6.43
18 | CC(C)Oc1ccc(F)c(-c2ccc(CO[C@@H]3C[C@H]3C(=O)O)cc2)c1 (relative stereo) [Example 37, Trans-2-((2′-fluoro-5′-isopropoxy-[1,1′-biphenyl]-4-yl)methoxy)cyclopropanecarboxylic acid] | 5.58
19 | CCSc1cccc(-c2ccc(CC[C@@H]3C[C@H]3C(=O)O)cc2)c1 (racemic) [Example 38, Trans-2-(2-(3′-(ethylthio)-[1,1′-biphenyl]-4-yl)ethyl)cyclopropanecarboxylic acid] | 5.49
20 | CC(C)Oc1cc(Cl)cc(-c2ccc(OC[C@@H]3C[C@H]3C(=O)O)cc2)c1 (racemic) [Example 120, Trans-2-(((3′-chloro-5′-isopropoxy-[1,1′-biphenyl]-4-yl)oxy)methyl) cyclopropanecarboxylic acid] | 6.21
21 | CC1(C)Cc2c(ccc(F)c2-c2ccc(OCC3CC3C(=O)O)cc2)O1 (stereo not drawn) [Example 22, 2-((4-(5-Fluoro-2,2-dimethyl-2,3-dihydrobenzofuran-4-yl)phenoxy)methyl) cyclopropanecarboxylic acid] | 5.90
22 | O=C(O)[C@@H]1C[C@H]1COc1ccc(-c2cc(OC(F)(F)F)ccc2Cl)cc1 (racemic) [Example 54, Trans-2-(((2′-chloro-5′-(trifluoromethoxy)-[1,1′-biphenyl]-4-yl)oxy)methyl)cyclopropanecarboxylic acid] | 6.30
23 | CC1(C)Cc2c(cc(F)cc2-c2ccc(OC[C@@H]3C[C@H]3C(=O)O)cc2)O1 (racemic) [Example 20, Trans-2-((4-(6-fluoro-2,2-dimethyl-2,3-dihydrobenzofuran-4-yl)phenoxy)methyl) cyclopropanecarboxylic acid] | 6.00
24 | O=C(O)[C@@H]1C[C@H]1COc1ccc(-c2cc(OC3CCC3)ccc2F)cc1 (racemic) [Example 94, Trans-2-(((5′-cyclobutoxy-2′-fluoro-[1,1′-biphenyl]-4-yl)oxy)methyl) cyclopropanecarboxylic acid] | 6.85
25 | CC(C)Oc1cc(F)cc(-c2ccc(OC[C@@H]3C[C@H]3C(=O)O)cc2)c1 (racemic) [Example 55, Trans-2-(((3′-fluoro-5′-isopropoxy-[1,1′-biphenyl]-4-yl)oxy)methyl) cyclopropanecarboxylic acid] | 5.97
26 | O=C(O)[C@H]1C[C@@H]1COc1ccc(-c2cc(Oc3ccccc3)ccc2F)cc1F (single isomer, unassigned) [Example 11] | 6.80
27 | CC(C)Oc1ccc(F)c(-c2ccc(CC[C@H]3C[C@@H]3C(=O)O)cc2)c1 (single isomer, unassigned) [Example 32] | 6.00
